The record followed here is patent US9400281B2, “Method of screening of therapeutic agents for K-Ras mutant driven cancers” (PUSAN NATIONAL UNIVERSITY INDUSTRY-UNIVERSITY COOPERATION …, priority 2008, dated 2016).

Where “and” joins values, the source holds several entries; their conditions need not be identical. Identical values can stand only once. Like-named read-outs stand apart in the source and are kept apart here.

The subject of data set [1] is K-Ras mutant cancer cell lines HCT116. Description: Western blot of p53 and p21 expression in K-Ras mutant HCT116 cells. In kind it is cell-based. The following applies: for fold induction at 10 µM: Homo sapiens, HCT-116, HCT116, 10 μM; for Protein expression ratio of compound to control, p21 / Protein expression ratio of compound to control, p53: HCT116, 10 μM, DMSO control = 1.0. On the procedure:
To confirm whether the compounds prepared according to Examples 1 to 5 are effective for inhibiting SNAIL-p53 binding at cell level, the compound was treated into K-Ras mutant cancer cell lines HCT116 and results were analyzed by western blotting.
Oncogenic K-ras suppresses the p53 activity through SNAIL. In the cell line HCT116, SNAIL is always expressed by K-Ras mutation and bound to p53 to suppress normal activity of p53. If the K-Ras mutant cancer cell line HCT116 is treated with a compound for suppressing SNAIL-p53 binding, p53 is normally activated and more expressed, and target genes of p53 are induced.
First, western blotting was performed to detect expression of p53 and p21, which is a target gene of p53. All cell lines used in the present invention were obtained from ATCC, and maintained in 10% FBS-containing RPMI-1640 or DMEM. Protein was extracted with RIPA buffer solution and a membrane loaded with cell lysate through typical SDS-PAGE and gel transfer method was prepared. After blocking with 5% non-fat dry milk, the membrane was subjected into a typical western blot procedure with an antibody corresponding to each gene. Antibodies used herein were obtained from Cell signaling, SantaCruz. p53 activity was confirmed by expression of p21, which is a target gene of p53.
A general note: In western blotting, separated proteins are transferred to a membrane and probed.

The test system of data set [2] is A549 (K-Ras mutant cancer cell line). Description: Cell death rate by tryphan blue cell counting, A549. In kind it is cell-based. The note with it: A549 (A546 [sic]). From the text: (§1) To confirm that the p53 induction of the compounds is related to K-Ras, A549 and HCT116, which are K-Ras mutant cancer cell lines, and MKN45, which is K-Ras wild type cancer cell line, were used.

The next data set concerns SNAIL-p53 binding. Description: GST pull down assay of SNAIL-p53 binding (Experimental Example 2). Further details: species or system human. The following applies: FIG. 21. The protocol: GST pull down assay is a method for identifying a binding degree of two proteins. GST-fused SNAIL protein and p53 recombinant protein were prepared and treated with the compound 5o or 7a to identify a binding degree of GST-SNAIL protein and p53 protein. […] If MDM2 is over-expressed, proteolysis of p53 is induced to suppress apoptosis occurring through target genes of p53, and an […] of cells is induced. Although MDM2 is a representative control factor of p53, MDM2 is not applied to K-Ras mutant disease or mutant p53 containing disease.
To perform GST pull down assay, three human SNAIL fragments (residues 1-90, 91-112, and 113-264) and p53 fragments (1-93 and 93-292) were expressed in E. coli as GST-fusion protein. Each of the fragments was loaded on to GSH-agarose, washed, and then eluted using a buffer containing 20 mM reduced glutathione. The eluted fractions were purified using an anionexchange chromatography (HitrapQ). The recombinant human p53 protein (residues 94-292) was expressed in E. coli using the vector pET28A which contains a hexa-histidine tag at the C terminus. The p53 protein including the hexa-histidine tag was purified using Ni-NTA affinity and a size exclusion chromatography (Superdex 200). To confirm the direct binding between p53 and SNAIL, agarose-bead conjugated GST or GST-SNAIL was incubated with His-p539 (histidine-p53) in PBS for 45 minutes at 4° C.. After washing with PBS, the precipitated protein was subjected into SDS-PAGE and western blotting.

Data set [3] concerns HCT116 (K-Ras mutant cancer cell line). Description: Cell death rate by tryphan blue cell counting, HCT116. In kind it is cell-based.
In data set [4] the test system is MKN45 (K-Ras wild type cancer cell line). Description: Cell death rate by tryphan blue cell counting, MKN45. Format: cell-based.
Source text: as §1

In the next data set the test system is MDA-MB 468. Description: Western blot of p21 expression in mutant p53 MDA-MB 468 cells. In kind it is cell-based, human. The note with it: for Expression ratio of gene to control, p21: DMSO control = 1.0.
Setting [5] is: DMSO control = 1.0, read-out: Protein expression ratio of compound to control, p21.
[6] abbreviates: DMSO control = 1.0, read-out: Protein expression ratio of compound to control, p53.

One may read the melting point as the temperature, or range, at which the solid turns liquid. As for `CCCCCSC1=CC(=O)c2ccccc2C1=O` [Compound 1e, 2-pentylthio-1,4-naphthoquinone], the melting point is 111 to 112 °C.

For `CCCCCCSC1=CC(=O)c2ccccc2C1=O` [Compound 1f, 2-hexylthio-1,4-naphthoquinone], the melting point lay in the range of 101 to 102 °C.

In turn, `CCCCCCCSC1=CC(=O)c2ccccc2C1=O` [Compound 1g, 2-heptylthio-1,4-naphthoquinone] registered a melting point of 114 to 115 °C.

For `CCCCCCCCSC1=CC(=O)c2ccccc2C1=O` [Compound 1h, 2-octylthio-1,4-naphthoquinone], the melting point was 114 to 115 °C.

Turning to `CCCCCCCCCSC1=CC(=O)c2ccccc2C1=O` [Compound 1i, 2-nonylthio-1,4-naphthoquinone], the melting point is 105 to 106 °C.

With `CCCCCCCCCCSC1=CC(=O)c2ccccc2C1=O` [Compound 1j, 2-decylthio-1,4-naphthoquinone], the melting point lay in the range of 101 to 102 °C.

Compound `CCNC1=CC(=O)c2c(OC)ccc(OC)c2C1=O` [Compound 5b, 2-ethylamino-5,8-dimethoxy-1,4-naphthoquinone] yielded a melting point of 172 to 173 °C.

`CCCNC1=CC(=O)c2c(OC)ccc(OC)c2C1=O` [Compound 5c, 2-propylamino-5,8-dimethoxy-1,4-naphthoquinone] registered a melting point of 175 to 176 °C.

Consider `CCCCNC1=CC(=O)c2c(OC)ccc(OC)c2C1=O` [Compound 5d, 2-butylamino-5,8-dimethoxy-1,4-naphthoquinone], for which the melting point fell in the range of 104 to 105 °C.

`CCCCCNC1=CC(=O)c2c(OC)ccc(OC)c2C1=O` [Compound 5e, 2-pentylamino-5,8-dimethoxy-1,4-naphthoquinone] returned a melting point of 102 to 103 °C.

The compound `CCCCCCNC1=CC(=O)c2c(OC)ccc(OC)c2C1=O` [Compound 5f, 2-hexylamino-5,8-dimethoxy-1,4-naphthoquinone] had a melting point of 83 to 84 °C.

Compound `CCCCCCCNC1=CC(=O)c2c(OC)ccc(OC)c2C1=O` [Compound 5g, 2-heptylamino-5,8-dimethoxy-1,4-naphthoquinone] yielded a melting point of 74 to 75 °C.

The compound `CCCCCCCCNC1=CC(=O)c2c(OC)ccc(OC)c2C1=O` [Compound 5h, 2-octylamino-5,8-dimethoxy-1,4-naphthoquinone] had a melting point of 81 to 82 °C.

As for `CCCCCCCCCNC1=CC(=O)c2c(OC)ccc(OC)c2C1=O` [Compound 5i, 2-nonylamino-5,8-dimethoxy-1,4-naphthoquinone], the fold induction at 10 µM in data set [1] (setting [5]) came to 4.6; in data set [1] (setting [6]) it was 1.6.

In turn, `CCCCCCCCCCNC1=CC(=O)c2c(OC)ccc(OC)c2C1=O` [Compound 5j, 2-decylamino-5,8-dimethoxy-1,4-naphthoquinone] returned a melting point of 86 to 87 °C. Further, the fold induction at 10 µM in data set [1] (setting [5]) turned out to be 5. Moreover, the fold induction at 10 µM in data set [1] (setting [6]) was found to be 1.3.

For the compound `COc1ccc(OC)c2c1C(=O)C=C(SCCO)C2=O` [Compound 5k, 2-(2-hydroxyethylthio)-5,8-dimethoxy-1,4-naphthoquinone], the melting point fell in the range of 117 to 118 °C. The fold induction at 10 µM in data set [1] (setting [5]) came to 0.2. Further, the fold induction at 10 µM in data set [1] (setting [6]) was 0.3.

Regarding `COc1ccc(OC)c2c1C(=O)C=C(SCCCO)C2=O` [Compound 5l, 2-(3-hydroxypropylthio)-5,8-dimethoxy-1,4-naphthoquinone], the fold induction at 10 µM in data set [1] (setting [5]) came out at 0.1; in data set [1] (setting [6]), 0.6.

As for `COc1ccc(OC)c2c1C(=O)C=C(SCCCCO)C2=O` [Compound 5m, 2-(4-hydroxybutylthio)-5,8-dimethoxy-1,4-naphthoquinone], the melting point was in the range of 122 to 123 °C. Moreover, the fold induction at 10 µM in data set [1] (setting [5]) came to 0.1. For the same compound, in data set [1] (setting [6]), the fold induction at 10 µM worked out at 0.8.

As for `COc1ccc(OC)c2c1C(=O)C=C(SCCCCCCO)C2=O` [Compound 5n, 2-(6-hydroxyhexylthio)-5,8-dimethoxy-1,4-naphthoquinone], the figures for the fold induction at 10 µM in data set [1] (setting [5]) and in data set [1] (setting [6]) were 0.2 and 1.1, respectively.

In turn, `COc1ccc(OC)c2c1C(=O)C=C(SCCCCCCCCCCC(=O)O)C2=O` [Compound 5p, 11-(5,8-dimethoxy-1,4-dioxo-naphthalen-2-ylthio)undecanoic acid] yielded a melting point of 146 to 147 °C. For the same compound, the fold induction at 10 µM in data set [1] (setting [5]) was determined as 0.3. Also, the fold induction at 10 µM in data set [1] (setting [6]) is 1.6.

Turning to `COc1ccc(OC)c2c1C(=O)C=C(SCCC(=O)N1CCN(c3ccccc3)CC1)C2=O` [Compound 6a, 5,8-dimethoxy-2-(3-oxo-3-(4-phenylpiperazin-1-yl)propylthio)naphthalene-1,4-dione], the fold induction at 10 µM in data set [1] (setting [5]) turned out to be 2.8; in data set [1] (setting [6]), 1.9.

With `COc1ccc(OC)c2c1C(=O)C=C(SCCCCCCCCCCC(=O)OCC(C)C)C2=O` [Compound 7a, isobutyl-11-(5,8-dimethoxy-1,4-dioxo-1,4-dihydronaphthalene-2-ylthio)undecanoate], the “Cancer cell death rate of compounds with respect to control” value (“Cancer cell death rate of compounds” for short) is recorded as 23 ± 3.4% in data set [2] (5 μM); 45 ± 2.3% in data set [2] (20 μM); 32 ± 2.1% in data set [3] (5 μM); 57 ± 2.8% in data set [3] (20 μM); 1 ± 1.0% in data set [4] (5 μM); 3 ± 2.4% in data set [4] (20 μM). Further, in the data set with SNAIL-p53 binding, the “Binding between GST-SNAIL protein and p53” value is recorded as “substantially weak”. Further, the fold induction at 10 µM in data set [1] (setting [5]) turned out to be 7.2; in data set [1] (setting [6]), 4.2.

Take `COc1ccc(OC)c2c1C(=O)C=C(SCCCCCCCCCCC(=O)NCC(C)C)C2=O` [Compound 7b, 11-(5,8-dimethoxy-1,4-dioxo-1,4-dihydronaphthalene-2-ylthio)-N-isobutyl undecanamide]: in data set [1], the “Protein expression ratio of compound to control, p21” value is on record as 7.0 and the “Protein expression ratio of compound to control, p53” value turned out to be 4.6.

On to `COc1ccc(OC)c2c1C(=O)C=C([S+]([O-])CCCCCCCCCCC(=O)OCC(C)C)C2=O` (centres unmarked) [Compound 8, isobutyl 11-(5,8-dimethoxyl-1,4-dioxo-1,4-dihydronaphthalene-2-ylsulfinyl) undecanoate], for which, in data set [1], the “Protein expression ratio of compound to control, p21” value was determined as 1.7 and the “Protein expression ratio of compound to control, p53” value came to 2.3.

As for `COc1ccc(C2=N[C@@H](c3ccc(Cl)cc3)[C@@H](c3ccc(Cl)cc3)N2C(=O)N2CCNC(=O)C2)c(OC(C)C)c1` [Nutlin-3, reference compound], the “Cancer cell death rate of compounds” value in data set [2] (5 μM) is 11 ± 4.0%; in data set [2] (10 μM), 19% and 19 ± 4.5%; in data set [2] (20 μM) it was 25 ± 4.7%; in data set [3] (5 μM), 21 ± 2.4%; in data set [3] (10 μM) it was 32% and 32 ± 2.9%; in data set [3] (20 μM) it was 40 ± 3.1%. Further, the “Cancer cell death rate of compounds” value in data set [4] (5 μM) is 28 ± 2.2%; in data set [4] (10 μM), 38% and 38 ± 2.9%; in data set [4] (20 μM), 47 ± 2.2%. For the same compound, the “Binding between GST-SNAIL protein and p53” value in the data set with SNAIL-p53 binding was “did not inhibit SNAIL-p53 binding”. Besides, the “Expression ratio of gene to control, p21” value came out at 0.9 with MDA-MB 468 (MDA-MB 468, 10 μM) and 1.2 in the data set with MDA-MB 468 (MDA-MB 468, 20 μM). The “Expression of p21 (target gene of p53)” value with MDA-MB 468 (p53 mutant-type MDA-MB 468, FIG. 23) is “did not affect p21”.
